Measured values as given in patent US7052834B1, “Tumor suppressor protein involved in death signaling, and diagnostics, therapeutics, and screening based on this protein” (St. Jude Children's Research Hospital, priority 1998, dated 2006).
Peptide text beside a SMILES is read from it. * marks the point of attachment. Cbz = O=C(OCc1ccccc1)*; CH2F = FC*

Assays:
[1] = test system: NB8; experiment: 5-aza-cytidine treatment: caspase-8 western blot and apoptosis; assay type: cell-based, human
Description: (§1) Caspase-8 western blot analysis of cell lysates from the NB8, NB10, and NB14 cell lines with (+) or without (−) 5-aza-2′-deoxycytidine. […] We therefore examined DNA methylation of CASP8 regulatory sequences as an alternative mechanism through which expression could be silenced, as documented for several tumor suppressor genes, such as INK4a, CDKN1, CDKN2, PTEN, MLH1, von Hippel-Lindau, and E-cadherin (Baylin et al., Adv. Cancer Res., 1998, 72:141–196; Belinsky et al., Proc. Natl. Acad. Sci. USA, 1998, 95:11891; Whang et al., Proc.Natl.Acad.Sci.USA,1998, 95:5246–5250; Merlo et al., Nature Medicine, 1995, 1:686–692).
(§2) The role of methylation of CASP8 regulatory sequences was tested by treating NB cells with 5-aza-cytidine, a compound that promotes the demethylation of CpG dinucleotides (Merlo et al., Nature Medicine, 1995, 1:686–692). When cells were treated with 10–50 μM 5-aza-cytidine for 2–3 days, caspase-8 expression was activated in the NB8 and NB11 cell lines, but not NB14 (FIG. 6A).

[2] = test system: NB14; experiment: as above; assay type: cell-based, human; conditions: after 10–50 μM for 2–3 days
Description: as §1, §2

[3] = test system: NB10; experiment: as above; assay type: cell-based, human
Description: as §1, §2

[4] = test system: neuroblastoma cell lines; experiment: Apoptosis after re-establishing caspase-8 expression; assay type: cell-based, human; conditions: cell lines not expressing caspase-8
Description: The present invention is based, in part, on the surprising discovery that CASP8 is functionally inactivated in greater than 90% of all MYCN amplified neuroblastoma cell lines analyzed. Neuroblastoma is a pediatric solid tumor, and those cases with MYCN amplification have a particularly poor prognosis. […] This discovery is significant in oncology, because cells in which caspase-8 is not expressed are not capable of undergoing apoptosis mediated by death receptors such as Fas and DR3.

[5] = test system: NB11; experiment: 5-aza-cytidine treatment: caspase-8 western blot; assay type: cell-based, human; conditions: 10–50 μM for 2–3 days
Description: as §1, §2

[6] = test system: NB7; experiment: Doxorubicin-induced apoptosis (TUNEL); assay type: cell-based, human
Method: (§3) In order to determine whether exogenous expression of caspase-8 resensitized caspase-8 null NB cells to chemotherapeutic agents, NB7 cells and NB7 cells transduced with pMSCV-Casp8(wt) were treated with doxorubicin. Doxorubicin-induced neuroblastoma apoptosis has previously been linked to the Fas receptor pathway (Fulda et al., Cancer Res., 1997, 57:3823–3829). The NB7 cell line was chosen since it lacks a functional CASP8 gene (FIGS. 4 and 5, Table 2).

[7] = test system: NB5; experiment: Doxorubicin-induced apoptosis (TUNEL); assay type: cell-based, human; conditions: 0.1 mM doxorubicin for 48 hrs, percentage of cell death by TUNEL
[8] = test system: NB8; experiment: Doxorubicin-induced apoptosis (TUNEL); assay type: cell-based, human; conditions: 0.1 mM doxorubicin for 48 hrs
[9] = test system: NB cell lines; experiment: Sensitivity of NB cell lines to doxorubicin-induced apoptosis; assay type: cell-based, human
Method: as §3

[10] = test system: NB3; experiment: Doxorubicin-induced apoptosis (TUNEL); assay type: cell-based, human; conditions: 0.1 mM doxorubicin for 48 hrs, percentage of cell death by TUNEL
[11] = test system: NB8; experiment: Fas mAb-induced apoptosis in cells with programmed caspase-8 expression; assay type: cell-based, human; conditions: zVAD-fmk added prior to programmed expression of caspase-8
Method: (§4) FIGS. 8A, 8B, 8C, 8D, and 8E. Effects of retrovirus expression of caspase-8 in three different NB cell lines that are caspase-8 nulls. […] The caspase-8(DN) product migrates at a higher molecular weight due to an HA-tag attached to its carboxyl-terminus. B, C:Morphology of NB7/Casp8 cells 5 hours after treatment with TNFα and cycloheximide. Membrane blebbing (Nomarski view, B) and condensed chromatin (visualized by DAPI staining, C), characteristics of apoptotic cells, are clearly visible. D:Percentage of cells that are positive for cell surface annexin-V staining, another hallmark of apoptotic cells. The various cell lines and their treatment regimens are shown at the bottom. E: Apoptotic induction by Fas mAb in proliferating NB8 and NB10 cells stably expressing caspase-8 at a low level. Induction measured as percentage of cells that are TUNEL-positive. The various cell lines and their treatment regimens are shown at the bottom.
(§5) Apoptotic assays. Cells were collected for annexin V-FITC staining and FACS analysis after the culture media containing zVAD-fmk was removed and replaced with normal culture medium for 6 hours in NB8 and NB 10. […] Viable cells were determined by light and immunofluorescent microscopy after removal of the zVAD-fmk containing culture medium and incubation at 37° C. for 0.5, 1, 2, 4 and 6 hrs for the pMSCV-Casp 8(wt) and DN transduced NB8 and NB10 cells. […]

[12] = test system: NB10; experiment: as above; assay type: cell-based, human; conditions: zVAD-fmk added prior to programmed expression of caspase-8
Method: as §4, §5

[13] = target: TNFR p55 (human) (UniProt P19438); experiment: cell-based or functional assay
Chain of TNFR p55 (human) (P19438 30-455): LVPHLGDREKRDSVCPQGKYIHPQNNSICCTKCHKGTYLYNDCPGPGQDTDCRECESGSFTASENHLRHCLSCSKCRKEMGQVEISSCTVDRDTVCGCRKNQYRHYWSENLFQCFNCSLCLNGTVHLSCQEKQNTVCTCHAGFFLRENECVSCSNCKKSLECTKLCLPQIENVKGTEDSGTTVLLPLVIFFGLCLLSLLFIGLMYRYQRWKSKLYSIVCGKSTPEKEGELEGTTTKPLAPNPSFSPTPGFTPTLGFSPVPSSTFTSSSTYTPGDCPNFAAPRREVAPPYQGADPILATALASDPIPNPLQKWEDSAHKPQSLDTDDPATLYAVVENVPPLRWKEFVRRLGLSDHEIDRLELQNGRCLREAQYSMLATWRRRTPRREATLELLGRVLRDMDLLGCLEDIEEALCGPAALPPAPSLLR

Question: Which results are given for `Nc1ncn([C@@H]2O[C@H](CO)[C@@H](O)[C@H]2O)c(=O)n1` [5-aza-cytidine]?
Answer: caspase-8 expression ([1]; 10–50 μM for 2–3 days): activated; spontaneous apoptosis ([1]; after 10–50 μM for 2–3 days): underwent spontaneous apoptosis; spontaneous apoptosis [2]: not; caspase-8 expression ([3]; FIG. 6A): results in the expression of caspase-8; spontaneous apoptosis ([3]; after 10–50 μM for 2–3 days): underwent spontaneous apoptosis; apoptosis when caspase-8 expression is re-established [4]: undergo apoptosis; caspase-8 expression [5]: activated

Question: Which “Doxorubicin-induced Apoptosis (+caspase-8)” value ([6]; NB7 +caspase-8, 0.1 mM doxorubicin for 48 hrs, TUNEL) does the source give for `COc1cccc2c1C(=O)c1c(O)c3c(c(O)c1C2=O)C[C@@](O)(C(=O)CO)C[C@@H]3O[C@H]1C[C@H](N)[C@H](O)[C@H](C)O1` [Doxorubicin, doxorubicin] here?
Answer: 42 +/− 2.6%

Question: And the “Doxorubicin-induced Apoptosis” value ([6]; NB7, 0.1 mM doxorubicin for 48 hrs, percentage of cell death by TUNEL)?
Answer: 24 +/− 3%

Question: And the “increase in the level of cell death” value ([6]; NB7 cells expressing functional caspase-8 vs parental/pMSCV/pMSCV-Casp8(DN), low levels of doxorubicin)?
Answer: 70–100%

Question: What about the “apoptosis after exposure to low levels of doxorubicin” value ([6]; parental NB7 cells and those transduced with pMSCV or pMSCV-Casp8(DN)) of the same compound?
Answer: very limited apoptosis

Question: And the “Doxorubicin-induced Apoptosis” value [7]?
Answer: 54 +/− 4.6%

Question: And the “Doxorubicin-induced Apoptosis (+caspase-8)” value ([8]; NB8 +caspase-8, TUNEL)?
Answer: 38 +/− 2%

Question: And the “Doxorubicin-induced Apoptosis” value ([8]; NB8, percentage of cell death by TUNEL)?
Answer: 18 +/− 2.6%

Question: What about the “sensitization to doxorubicin-induced apoptosis” value ([9]; NB cell lines (e.g., NB16 and NB21) expressing caspase-8) of the same compound?
Answer: more sensitized

Question: What about the “sensitization to doxorubicin-induced apoptosis” value ([9]; cell lines that do not express caspase-8, regardless of Fas/CD95 status) of the same compound?
Answer: not sensitized

Question: And the “Doxorubicin-induced Apoptosis” value [10]?
Answer: 52 +/− 4%

Question: `COC(=O)C[C@H](NC(=O)[C@H](C)NC(=O)[C@@H](NC(=O)OCc1ccccc1)C(C)C)C(=O)CF` [zVAD-fmk] (Cbz-Val-Ala-Asp(OMe)-CH2F) was tested. Which “apoptosis induced by agonistic Fas mAb” value [11] did it give?
Answer: blocked

Question: What about the “apoptosis induced by agonistic Fas mAb” value [12] of the same compound?
Answer: blocked

Question: Which apoptosis of NB7 cells lacking caspase-8, five hours after TNF-α/CHX treatment (annexin-V staining) [13] does the source give for TNF-α (ligand) here?
Answer: 5%

Question: What about the apoptosis of NB7 cells transduced with pMSCV-Casp8(wt), five hours after TNF-α/CHX treatment (DAPI, annexin-V staining) [13] of the same compound?
Answer: 40%
